From article PMC10178848, “Modulating fast skeletal muscle contraction protects skeletal muscle in animal models of Duchenne muscular dystrophy” (The Journal of Clinical Investigation, 2023)

Key:
PAK2 = target: T1, PAK2 (Homo sapiens, UniProt Q13177); assay: KINOMEscan scanEDGE; format: binding; conditions: 20 uM
T1 construct: purchased Eurofins DiscoverX (KINOMEscan; SAFETYscan E/IC50 ELECT)

mouse TA muscle = assay: In situ TA force and lengthening injury; format: in vivo; conditions: oral
Procedure: Measurement of isometric force and eccentric injury response in situ was performed in mouse TA muscle based on published protocols ([30]). Mice were anesthetized with 2% isoflurane (0.7%–1.5% maintenance) on a 37°C platform. The distal tendon to the TA and EDL muscle was attached with 4-0 suture a servomotor (Aurora Scientific). The sciatic nerve was exposed at the knee for hook electrodes. For compound assessment, baseline isometric contraction was assessed at 25–175 Hz (9 mA, 300 ms) followed by 100 Hz stimuli every 5 minutes. After 15 minutes, compound was dosed PO, and recording continued for 4 hours followed by a second force frequency. For in situ eccentric injury, compound was administered PO, muscle was stimulated every 5 minutes at 100 Hz for 3.5 hours, and then 2 lengthening contractions were performed (10 min apart, 100 ms at 150 Hz, then lengthening 0.2 L0 at 2 L0/s and hold for 100 ms). Isometric force before and 10 minutes after the injury contractions was recorded.

mdx EDL muscle = assay: Procion orange dye uptake after eccentric contraction; parameters: species or system mouse
Procedure: For procion imaging, injury protocols were performed in 1% procion MX Dye (020 Brilliant Orange, Jacquard Products) and fixed in cold 4% paraformaldehyde and then cold 30% sucrose/PBS before cryosection. Laminin immunohistochemistry used rabbit polyclonal (L9393, Sigma-Aldrich, 1:20) and chicken anti-rabbit Alexa Fluor 488 (Invitrogen, 1:500). Slides were scanned at ×20 with Nikon Te-2000 dark-field microscopy and analyzed with Imaris software (Bitplane AG). Imaris’ surface component algorithm was used to detect procion-labeled fiber boundaries. Nonspecific procion staining of the peripheral tendon and outer layer of cells (where handling could cause injury) was excluded by applying a size and location filter (>2× average fiber size and located adjacent to laminin-positive fibers at the edge of the muscle). Each fiber was identified with an ID and color coded before calculation.

WT or mdx mice = assay: Rotarod endurance; format: in vivo, mouse; conditions: single doses up to 10 mg/kg, 4 hours after oral administration
Procedure: Prior to in vivo assessments, mice were dosed PO after a 2-hour fast with 10 mL/Kg suspensions. Grip strength and rotarod assessments were performed masked, 4 hours after dosing using published protocols ([66], [67]). Grip strength was performed with a Columbus Instruments Rodent Force Meter. Forepaw strength represented the average of 5 trials with 30-second rest periods, normalized by BW. Rotarod endurance was performed with a Columbus Instruments RotaMax. Mice were placed on the device drum at 1 rpm, which accelerated 1 rpm every 3 seconds to 12 rpm and a maximal time of 500 seconds. This was repeated 3 times with a 3-minute rest and total time reported. Voluntary wheel running performance was assessed with a customized system. Timestamped RPMs were measured 24 hours per day by infrared sensors, and a custom software calculated distance. Whole-body EBD was visualized after intravenous administration ([35]). EBD in PBS at 10 mg/mL was sterile filtered, and 50 μL/10 g BW was injected via tail vein. After 24 hours, animals were sacrificed, skin was removed and fixed in 4% formalin for 24 hours, and photographed using a Leica/Lumix camera.

ABL1-phosphorylated = target: T2, ABL1-phosphorylated (Homo sapiens, UniProt P00519); assay: KINOMEscan scanEDGE; format: binding; conditions: 20 uM
T2 construct: purchased Eurofins DiscoverX (KINOMEscan; SAFETYscan E/IC50 ELECT)
T2 sequence (P00519 whole entry): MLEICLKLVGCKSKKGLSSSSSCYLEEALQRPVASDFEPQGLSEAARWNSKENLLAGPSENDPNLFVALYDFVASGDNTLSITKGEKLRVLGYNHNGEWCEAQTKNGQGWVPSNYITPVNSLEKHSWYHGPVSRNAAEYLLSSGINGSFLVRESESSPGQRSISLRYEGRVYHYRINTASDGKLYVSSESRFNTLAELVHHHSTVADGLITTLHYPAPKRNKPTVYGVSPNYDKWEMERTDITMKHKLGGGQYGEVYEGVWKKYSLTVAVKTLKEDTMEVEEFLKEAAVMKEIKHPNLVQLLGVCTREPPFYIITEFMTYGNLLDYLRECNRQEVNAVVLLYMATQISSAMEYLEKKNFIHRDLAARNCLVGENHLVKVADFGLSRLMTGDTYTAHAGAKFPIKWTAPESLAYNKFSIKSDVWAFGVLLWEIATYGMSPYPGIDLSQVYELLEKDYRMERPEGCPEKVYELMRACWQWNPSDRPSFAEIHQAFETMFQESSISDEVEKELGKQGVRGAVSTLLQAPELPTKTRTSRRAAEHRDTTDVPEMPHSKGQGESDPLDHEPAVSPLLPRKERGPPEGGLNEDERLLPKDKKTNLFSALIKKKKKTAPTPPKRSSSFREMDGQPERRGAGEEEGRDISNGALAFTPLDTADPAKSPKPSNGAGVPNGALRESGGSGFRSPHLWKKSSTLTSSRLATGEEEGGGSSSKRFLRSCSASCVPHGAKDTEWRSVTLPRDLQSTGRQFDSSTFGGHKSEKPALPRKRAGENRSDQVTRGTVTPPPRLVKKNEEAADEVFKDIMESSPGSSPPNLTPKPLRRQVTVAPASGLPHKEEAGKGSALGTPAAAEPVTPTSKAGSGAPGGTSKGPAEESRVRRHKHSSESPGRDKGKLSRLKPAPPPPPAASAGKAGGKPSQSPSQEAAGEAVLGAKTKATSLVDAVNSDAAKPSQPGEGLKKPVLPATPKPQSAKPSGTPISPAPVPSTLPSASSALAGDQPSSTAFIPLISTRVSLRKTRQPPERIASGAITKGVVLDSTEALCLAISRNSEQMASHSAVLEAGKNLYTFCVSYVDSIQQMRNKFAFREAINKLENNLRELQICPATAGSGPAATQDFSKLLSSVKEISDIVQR

MARK3 = target: T3, MARK3 (Homo sapiens, UniProt P27448); assay: KINOMEscan scanEDGE; format: binding; conditions: 20 uM
T3 construct: purchased Eurofins DiscoverX (KINOMEscan; SAFETYscan E/IC50 ELECT)
T3 sequence (P27448 whole entry): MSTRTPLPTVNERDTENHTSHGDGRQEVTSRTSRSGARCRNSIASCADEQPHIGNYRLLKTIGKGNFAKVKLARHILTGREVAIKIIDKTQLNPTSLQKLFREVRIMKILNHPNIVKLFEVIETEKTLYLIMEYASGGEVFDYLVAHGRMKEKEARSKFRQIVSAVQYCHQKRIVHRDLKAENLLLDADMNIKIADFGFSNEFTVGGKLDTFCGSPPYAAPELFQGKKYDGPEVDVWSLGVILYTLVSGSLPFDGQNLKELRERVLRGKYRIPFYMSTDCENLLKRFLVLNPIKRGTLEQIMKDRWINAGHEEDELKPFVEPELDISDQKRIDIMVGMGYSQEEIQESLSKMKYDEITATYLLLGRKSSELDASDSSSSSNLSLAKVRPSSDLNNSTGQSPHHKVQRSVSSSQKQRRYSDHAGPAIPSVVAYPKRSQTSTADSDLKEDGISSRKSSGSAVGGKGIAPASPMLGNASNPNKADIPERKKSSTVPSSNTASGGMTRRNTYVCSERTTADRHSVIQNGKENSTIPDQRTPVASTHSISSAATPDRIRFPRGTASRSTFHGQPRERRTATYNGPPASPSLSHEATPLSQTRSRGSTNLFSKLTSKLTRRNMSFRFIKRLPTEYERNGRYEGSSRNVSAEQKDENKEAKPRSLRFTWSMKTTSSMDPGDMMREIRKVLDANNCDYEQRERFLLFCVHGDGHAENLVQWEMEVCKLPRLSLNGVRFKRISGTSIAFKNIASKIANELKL

mdx mice [1] = assay: Chronic 8-week dosing in mdx mice (fibrosis, weights, histology); format: in vivo, mouse
Description: C57BL/6 (stock no. 000664), C57BL/10J (stock no. 000665, control for mdx experiments), C57BL/10ScSn-Dmd^mdx/J (mdx, stock no. 001801), and D2.B10 (DBA/2-congenic) Dmd^mdx (DBA/2J mdx, stock no. 013141) mice were from The Jackson Laboratory. Sprague-Dawley rats were purchased from Charles River Laboratories. For ex vivo experiments, mice were 10–16 weeks old. For in situ experiments, mice were 8–14 weeks of age. For in vivo chronic dosing studies, mdx and DBA/2J mdx were 4–5 weeks of age at study start. Dosing was via a 10 mL/kg suspension (1% methyl cellulose, 0.1% Tween 80 in water). For studies in 14-day-old preweaning mice, PO dosing was via syrup suspension (3 mg/kg/d). GRMD were supplied by Texas A&M Department of Veterinary Integrative Biosciences.
For sterile muscle injury, mice were anesthetized with isoflurane and 50 μL cardiotoxin (12 × 10^–6 M, 217503, Millipore) injected in the TA muscle. Muscles 8 days after injury were snap frozen in nitrogen-chilled isopentane. 8 μm cryosections were cut and stained with H&E. For each analysis, more than 10 slides (per condition/group) containing 6 muscle sections/sample were used, and myofibers in the injured area were counted and measured with a Mirax digital scanner and HALO software ([68]). For adult mouse studies, muscles were fixed in 10% formalin and embedded in paraffin for sectioning. Laminin staining (RB-082, Thermo Fisher Scientific) was used to outline fibers, and picrosirius red was used for collagen accumulation. Image analysis was performed using ImarisX64 software (Bitplane AG), and fiber sizing was calculated using minimal Feret’s diameter ([69]). For after weaning juvenile mouse studies, cryosections from soleus muscles were mounted in ProLong antifade mountant with DAPI (Thermo Fisher Scientific). Fiber type, size, and central nucleation were quantified with analysis via SMASH ([70]) and ImageJ (NIH). Antibodies used were mouse anti-MHC2A (1:50, SC-71, Developmental Studies Hybridoma Bank) and mouse anti-eMHC (1:10, BF-45, Developmental Studies Hybridoma Bank).

mdx mice [2] = assay: Plasma CK activity in mice; format: in vivo, mouse
Procedure: Plasma from mice and dogs were analyzed for CK activity using standard protocols (Pointe Scientific, Thermo Fisher Scientific).

T1 sequence (Q13177 whole entry): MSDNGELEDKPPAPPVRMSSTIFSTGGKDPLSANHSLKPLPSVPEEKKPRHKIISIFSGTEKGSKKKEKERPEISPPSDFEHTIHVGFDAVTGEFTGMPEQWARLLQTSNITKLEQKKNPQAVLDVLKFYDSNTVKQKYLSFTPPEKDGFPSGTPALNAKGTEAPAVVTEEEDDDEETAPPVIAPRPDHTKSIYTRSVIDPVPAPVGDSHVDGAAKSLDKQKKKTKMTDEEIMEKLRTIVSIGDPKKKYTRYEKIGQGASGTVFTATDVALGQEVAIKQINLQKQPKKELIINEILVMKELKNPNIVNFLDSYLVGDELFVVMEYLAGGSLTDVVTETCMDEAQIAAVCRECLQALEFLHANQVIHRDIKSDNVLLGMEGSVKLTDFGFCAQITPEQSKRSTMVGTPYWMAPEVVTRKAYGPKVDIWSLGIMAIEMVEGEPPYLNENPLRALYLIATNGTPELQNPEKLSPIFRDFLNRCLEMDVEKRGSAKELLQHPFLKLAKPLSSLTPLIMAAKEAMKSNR

O=c1ccc(-c2cnc(OCC(F)(F)F)nc2)nn1Cc1cncc(F)c1 [EDG-5506]
binding, % of control (PAK2): 98 % of control
decrease in isometric force at protective doses (mouse TA muscle; mdx TA in situ): < 10%
strength drop after in situ lengthening injury (mouse TA muscle; mdx TA muscle, 2 lengthening contractions): dramatically improved
membrane-impermeable dye (procion orange) uptake (mdx EDL muscle): effectively reduced dye uptake
rotarod endurance (WT or mdx mice): no effect
binding, % of control (ABL1-phosphorylated): 72 % of control
binding, % of control (MARK3): 85 % of control
body or muscle weight (mdx mice [1]; 8 weeks): no effect
diaphragm fibrosis (collagen, picrosirius red) (mdx mice [1]; 8 weeks of treatment): decreased diaphragm fibrosis
average grip strength (mdx mice [1]; after 5 weeks of dosing): increased average grip strength
plasma CK activity after in situ injury (mdx mice [2]; 1 hour after in situ injury): lowered plasma CK activity
postexercise plasma CK (mdx mice [2]; 1 hour after rotarod or grip strength tests): significantly lower
